SMILES strings stand for the structures.

The term DC50 denotes the concentration at which degradation of the target reaches its halfway point. Low values mean a more potent degrader, high ones a less potent degrader. The term IC50 denotes the concentration that inhibits the measured activity by half.

The target in one experiment is T1, ALK protein in H3122 (EML4-ALK) cells (Homo sapiens, UniProt Q9UM73).
T1 construct: EML4 (Echinoderm microtubule-associated protein-like 4, Q9HC35) fusion partner, variant 1; host or cells: NCI-H3122 lung adenocarcinoma cells; the other entry of the earlier key: EML4 (Q9HC35, Echinoderm microtubule-associated protein-like 4)
T1 sequence (Q9UM73 with tags, fused parts or gaps): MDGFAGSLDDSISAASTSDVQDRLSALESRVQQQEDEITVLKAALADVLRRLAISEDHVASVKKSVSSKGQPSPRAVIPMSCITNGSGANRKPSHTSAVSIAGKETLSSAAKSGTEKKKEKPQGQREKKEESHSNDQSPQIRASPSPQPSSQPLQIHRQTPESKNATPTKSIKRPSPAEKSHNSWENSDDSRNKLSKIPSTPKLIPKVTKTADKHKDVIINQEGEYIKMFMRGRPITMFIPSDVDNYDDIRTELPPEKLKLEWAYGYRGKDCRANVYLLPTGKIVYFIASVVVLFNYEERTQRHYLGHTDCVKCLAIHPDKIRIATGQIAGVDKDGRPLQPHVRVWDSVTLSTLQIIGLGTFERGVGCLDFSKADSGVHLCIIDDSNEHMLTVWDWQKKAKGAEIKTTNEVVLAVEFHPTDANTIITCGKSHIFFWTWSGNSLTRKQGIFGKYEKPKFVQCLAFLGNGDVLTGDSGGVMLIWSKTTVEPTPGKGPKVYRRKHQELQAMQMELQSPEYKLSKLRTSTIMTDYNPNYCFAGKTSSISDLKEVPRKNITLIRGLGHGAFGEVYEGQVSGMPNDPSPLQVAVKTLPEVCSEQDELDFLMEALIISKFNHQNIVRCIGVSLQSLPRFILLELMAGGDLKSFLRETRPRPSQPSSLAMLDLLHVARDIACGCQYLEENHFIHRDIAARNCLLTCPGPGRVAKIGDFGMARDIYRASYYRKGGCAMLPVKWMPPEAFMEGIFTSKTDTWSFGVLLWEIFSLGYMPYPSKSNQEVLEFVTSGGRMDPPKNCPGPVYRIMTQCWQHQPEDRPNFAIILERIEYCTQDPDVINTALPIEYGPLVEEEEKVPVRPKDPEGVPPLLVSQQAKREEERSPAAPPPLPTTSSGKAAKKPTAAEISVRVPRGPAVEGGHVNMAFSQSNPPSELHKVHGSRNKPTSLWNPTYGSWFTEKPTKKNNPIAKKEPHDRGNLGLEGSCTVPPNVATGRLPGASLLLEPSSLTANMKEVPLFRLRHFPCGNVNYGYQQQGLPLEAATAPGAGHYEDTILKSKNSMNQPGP
The experiment is described as follows: Western blot of ALK protein level (degradation, DC50), ALK phosphorylation and downstream signaling in H3122 cells. It is filed as cell-based. The settings on record: ALK protein degradation in H3122 cells.
Description: Cancer cells were seeded in 1 ml RPMI1640 medium in 24-well plate at the density of 3×10^5 or 1.5×10^5 cells/ml. […] Then cells were washed twice with PBS and lyzed in RIPA lysis buffer with Halt Proteinase and Phosphotase inhibitor. Equal amount of proteins were loaded to run SDS-PAGE gels after denature. The gels were blotted to PVDF membrane. After incubating with first and secondary antibodies, the images were developed using SuperSignal West Pico Chemiluminescent Substrate.
DC50 (concentration required to degrade protein by half) were calculated based on the intensity from western blot, and data were analyzed via Prism GraphPad with non-linear regression.
The compound `C[C@@H](Oc1cc(-c2cnn(C3CCN(C(=O)CCOCCOCCOCCOCCNc4cccc5c4C(=O)N(C4CCC(=O)NC4=O)C5=O)CC3)c2)cnc1N)c1c(Cl)ccc(F)c1Cl` (stereo partly drawn) [SIAIS151060, 4-((15-(4-(4-(6-amino-5-((R)-1-(2,6-dichloro-3-fluorophenyl)ethoxy)pyridin-3-yl)-1H-pyrazol-1-yl)piperidin-1-yl)-15-oxo-3,6,9,12-tetraoxapentadecyl)amino)-2-(2,6-dioxopiperidin-3-yl)isoindoline-1,3-dione] came in with a DC50 of 100 to 500 nM.

As to `C[C@@H](Oc1cc(-c2cnn(C3CCN(C(=O)CCCCNc4cccc5c4C(=O)N(C4CCC(=O)NC4=O)C5=O)CC3)c2)cnc1N)c1c(Cl)ccc(F)c1Cl` (stereo partly drawn) [SIAIS151082, 4-((5-(4-(4-(6-amino-5-((R)-1-(2,6-dichloro-3-fluorophenyl)ethoxy)pyridin-3-yl)-1H-pyrazol-1-yl)piperidin-1-yl)-5-oxopentyl)amino)-2-(2,6-dioxopiperidin-3-yl)isoindoline-1,3-dione], the DC50 was 1 to 10 nM.

Compound `C[C@@H](Oc1cc(-c2cnn(C3CCN(C(=O)CNc4cccc5c4C(=O)N(C4CCC(=O)NC4=O)C5=O)CC3)c2)cnc1N)c1c(Cl)ccc(F)c1Cl` (stereo partly drawn) [SIAIS151083, 4-((2-(4-(4-(6-amino-5-((R)-1-(2,6-dichloro-3-fluorophenyl)ethoxy)pyridin-3-yl)-1H-pyrazol-1-yl)piperidin-1-yl)-2-oxoethyl)amino)-2-(2,6-dioxopiperidin-3-yl)isoindoline-1,3-dione] registered a 50% degradation concentration (DC50) of 10 to 50 nM.

Still in this experiment, the particulars now being: H3122 cells, western blot.
In the case of `C[C@@H](Oc1cc(-c2cnn(C3CCN(C(=O)CCCCNc4cccc5c4C(=O)N(C4CCC(=O)NC4=O)C5=O)CC3)c2)cnc1N)c1c(Cl)ccc(F)c1Cl` (stereo partly drawn) [SIAIS151082, 4-((5-(4-(4-(6-amino-5-((R)-1-(2,6-dichloro-3-fluorophenyl)ethoxy)pyridin-3-yl)-1H-pyrazol-1-yl)piperidin-1-yl)-5-oxopentyl)amino)-2-(2,6-dioxopiperidin-3-yl)isoindoline-1,3-dione], the “concentration at which ALK protein level was reduced” value was “about 50 nM”.

For a further experiment, the system named is SR (NPM-ALK) cells. Description: Growth inhibition IC50 in ALCL SR cells (CCK8/WST, 72 hours). The settings on record: 72 h, SR cells, WST; Brigatinib-based PROTAD molecules (Table 3). It is filed as cell-based.
Description: SR (NPM-ALK) and NCI-H2228 (EML4-ALK, V3) cells were purchased from ATCC. […] All Cells were cultured in RPMI1640 medium with 10% FBS and Penicillin-Streptomycin in 37° C. incubator with 5% CO2.
Cells were seeded at specific density in 96 well plates one day before treatment. […] Viable cells were measured via CCK8 reagent and IC50s were calculated via Prism Graphad. Experiments were repeated at least three times.
As to `COc1cc(N2CCC(N3CCN(C(=O)CCCCCCNc4cccc5c4CN(C4CCC(=O)NC4=O)C5=O)CC3)CC2)ccc1Nc1ncc(Cl)c(Nc2ccccc2P(C)(C)=O)n1` (stereo not drawn) [SIAIS219124, 3-(4-((7-(4-(1-(4-((5-chloro-4-((2-(dimethylphosphoryl)phenyl)amino)pyrimidin-2-yl)amino)-3-methoxyphenyl)piperidin-4-yl)piperazin-1-yl)-7-oxoheptyl)amino)-1-oxoisoindolin-2-yl)piperidine-2,6-dione], the half-inhibitory concentration (IC50) was 2.47 ± 0.6 nM.

On to `COc1cc(N2CCC(NC(=O)CCCNc3cccc4c3CN(C3CCC(=O)NC3=O)C4=O)CC2)ccc1Nc1ncc(Cl)c(Nc2ccccc2P(C)(C)=O)n1` (stereo not drawn) [SIAIS219128, N-(1-(4-((5-chloro-4-((2-(dimethylphosphoryl)phenyl)amino)pyrimidin-2-yl)amino)-3-methoxyphenyl)piperidin-4-yl)-4-((2-(2,6-dioxopiperidin-3-yl)-1-oxoisoindolin-4-yl)amino)butanamide], for which the IC50 was 6.67 ± 1 nM.

Take `COc1cc(N2CCC(NC(=O)CNc3cccc4c3CN(C3CCC(=O)NC3=O)C4=O)CC2)ccc1Nc1ncc(Cl)c(Nc2ccccc2P(C)(C)=O)n1` (stereo not drawn) [SIAIS219151, N-(1-(4-((5-chloro-4-((2-(dimethylphosphoryl)phenyl)amino)pyrimidin-2-yl)amino)-3-methoxyphenyl)piperidin-4-yl)-2-((2-(2,6-dioxopiperidin-3-yl)-1-oxoisoindolin-4-yl)amino)acetamide]: the IC50 was 102 ± 4.8 nM.

As to `COc1cc(N2CCC(NC(=O)CCCCNc3cccc4c3CN(C3CCC(=O)NC3=O)C4=O)CC2)ccc1Nc1ncc(Cl)c(Nc2ccccc2P(C)(C)=O)n1` (stereo not drawn) [SIAIS219152, N-(1-(4-((5-chloro-4-((2-(dimethylphosphoryl)phenyl)amino)pyrimidin-2-yl)amino)-3-methoxyphenyl)piperidin-4-yl)-5-((2-(2,6-dioxopiperidin-3-yl)-1-oxoisoindolin-4-yl)amino)pentanamide], the IC50 stood at 3.78 ± 0.4 nM.

As for `COc1cc(N2CCC(NC(=O)CCCCCNc3cccc4c3CN(C3CCC(=O)NC3=O)C4=O)CC2)ccc1Nc1ncc(Cl)c(Nc2ccccc2P(C)(C)=O)n1` (stereo not drawn) [SIAIS219153, N-(1-(4-((5-chloro-4-((2-(dimethylphosphoryl)phenyl)amino)pyrimidin-2-yl)amino)-3-methoxyphenyl)piperidin-4-yl)-6-((2-(2,6-dioxopiperidin-3-yl)-1-oxoisoindolin-4-yl)amino)hexanamide], it took 3.12 ± 0.2 nM to reach half-maximal inhibition (IC50).

`COc1cc(N2CCC(NC(=O)CCCCCCNc3cccc4c3CN(C3CCC(=O)NC3=O)C4=O)CC2)ccc1Nc1ncc(Cl)c(Nc2ccccc2P(C)(C)=O)n1` (stereo not drawn) [SIAIS219154, N-(1-(4-((5-chloro-4-((2-(dimethylphosphoryl)phenyl)amino)pyrimidin-2-yl)amino)-3-methoxyphenyl)piperidin-4-yl)-7-((2-(2,6-dioxopiperidin-3-yl)-1-oxoisoindolin-4-yl)amino)heptanamide]: the IC50 stood at 3.8 ± 0.2 nM.

Compound `COc1cc(N2CCC(N3CCN(C(=O)CCCNc4cccc5c4CN(C4CCC(=O)NC4=O)C5=O)CC3)CC2)ccc1Nc1ncc(Cl)c(Nc2ccccc2P(C)(C)=O)n1` (stereo not drawn) [SIAIS219155, 3-(4-((4-(4-(1-(4-((5-chloro-4-((2-(dimethylphosphoryl)phenyl)amino)pyrimidin-2-yl)amino)-3-methoxyphenyl)piperidin-4-yl)piperazin-1-yl)-4-oxobutyl)amino)-1-oxoisoindolin-2-yl)piperidine-2,6-dione] displayed an IC50 of 4.34 ± 0.4 nM.

In turn, `COc1cc(N2CCC(N3CCN(C(=O)CCCCNc4cccc5c4CN(C4CCC(=O)NC4=O)C5=O)CC3)CC2)ccc1Nc1ncc(Cl)c(Nc2ccccc2P(C)(C)=O)n1` (stereo not drawn) [SIAIS219156, 3-(4-((5-(4-(1-(4-((5-chloro-4-((2-(dimethylphosphoryl)phenyl)amino)pyrimidin-2-yl)amino)-3-methoxyphenyl)piperidin-4-yl)piperazin-1-yl)-5-oxopentyl)amino)-1-oxoisoindolin-2-yl)piperidine-2,6-dione] gave an IC50 of 3.09 ± 0.2 nM.

For the compound `COc1cc(N2CCC(N3CCN(C(=O)CCCCCNc4cccc5c4CN(C4CCC(=O)NC4=O)C5=O)CC3)CC2)ccc1Nc1ncc(Cl)c(Nc2ccccc2P(C)(C)=O)n1` (stereo not drawn) [SIAIS219157, 3-(4-((6-(4-(1-(4-((5-chloro-4-((2-(dimethylphosphoryl)phenyl)amino)pyrimidin-2-yl)amino)-3-methoxyphenyl)piperidin-4-yl)piperazin-1-yl)-6-oxohexyl)amino)-1-oxoisoindolin-2-yl)piperidine-2,6-dione], it took 1.99 ± 0.2 nM to reach half-maximal inhibition (IC50). Against the preceding compound, the IC50 is about 1.6-fold lower.

On to `COc1cc(N2CCC(N3CCN(C(=O)CCc4cccc5c4C(=O)N(C4CCC(=O)NC4=O)C5=O)CC3)CC2)ccc1Nc1ncc(Cl)c(Nc2ccccc2P(C)(C)=O)n1` (stereo not drawn) [SIAIS219158, 4-(3-(4-(1-(4-((5-chloro-4-((2-(dimethylphosphoryl)phenyl)amino)pyrimidin-2-yl)amino)-3-methoxyphenyl)piperidin-4-yl)piperazin-1-yl)-3-oxopropyl)-2-(2,6-dioxopiperidin-3-yl)isoindoline-1,3-dione], for which the IC50 amounted to 30.3 ± 3.8 nM.

For `COc1cc(N2CCC(NC(=O)CCc3cccc4c3C(=O)N(C3CCC(=O)NC3=O)C4=O)CC2)ccc1Nc1ncc(Cl)c(Nc2ccccc2P(C)(C)=O)n1` (stereo not drawn) [SIAIS219170, N-(1-(4-((5-chloro-4-((2-(dimethylphosphoryl)phenyl)amino)pyrimidin-2-yl)amino)-3-methoxyphenyl)piperidin-4-yl)-3-(2-(2,6-dioxopiperidin-3-yl)-1,3-dioxoisoindolin-4-yl)propanamide], half-maximal inhibition (IC50) required 10.8 ± 1.4 nM.

`COc1cc(N2CCC(NCCCCNc3cccc4c3C(=O)N(C3CCC(=O)NC3=O)C4=O)CC2)ccc1Nc1ncc(Cl)c(Nc2ccccc2P(C)(C)=O)n1` (stereo not drawn) [SIAIS220026, 4-((4-((1-(4-((5-chloro-4-((2-(dimethylphosphoryl)phenyl)amino)pyrimidin-2-yl)amino)-3-methoxyphenyl)piperidin-4-yl)amino)butyl)amino)-2-(2,6-dioxopiperidin-3-yl)isoindoline-1,3-dione] returned a half-inhibitory concentration (IC50) of 7.4 nM.

For the compound `COc1cc(N2CCC(N3CCN(CCNc4cccc5c4C(=O)N(C4CCC(=O)NC4=O)C5=O)CC3)CC2)ccc1Nc1ncc(Cl)c(Nc2ccccc2P(C)(C)=O)n1` (stereo not drawn) [SIAIS220027, 4-((2-(4-(1-(4-((5-chloro-4-((2-(dimethylphosphoryl)phenyl)amino)pyrimidin-2-yl)amino)-3-methoxyphenyl)piperidin-4-yl)piperazin-1-yl)ethyl)amino)-2-(2,6-dioxopiperidin-3-yl)isoindoline-1,3-dione], it took 3.8 nM to reach half-maximal inhibition (IC50). Compared with the last compound, the IC50 is about 1.9-fold lower.

For `COc1cc(N2CCC(N(C)C(=O)CCCNc3cccc4c3C(=O)N(C3CCC(=O)NC3=O)C4=O)CC2)ccc1Nc1ncc(Cl)c(Nc2ccccc2P(C)(C)=O)n1` (stereo not drawn) [SIAIS220030, N-(1-(4-((5-chloro-4-((2-(dimethylphosphoryl)phenyl)amino)pyrimidin-2-yl)amino)-3-methoxyphenyl)piperidin-4-yl)-4-((2-(2,6-dioxopiperidin-3-yl)-1,3-dioxoisoindolin-4-yl)amino)-N-methylbutanamide], 5.8 nM corresponded to half-maximal inhibition (IC50).

Still in this experiment, the particulars now being: SR cells, WST; Alectinib based ALK PROTAD compounds (Table 4).
Compound `CCc1cc2c(cc1N1CCC(NC(=O)CCCCCCCCC(=O)N[C@H](C(=O)N3C[C@H](O)C[C@H]3C(=O)NCc3ccc(-c4scnc4C)cc3)C(C)(C)C)CC1)C(C)(C)c1[nH]c3cc(C#N)ccc3c1C2=O` [SIAIS219021, N1-(1-(3-cyano-9-ethyl-6,6-dimethyl-11-oxo-6,11-dihydro-5H-benzo[b]carbazol-8-yl)piperidin-4-yl)-N10-((S)-1-((2S,4R)-4-hydroxy-2-((4-(4-methylthiazol-5-yl)benzyl)carbamoyl)pyrrolidin-1-yl)-3,3-dimethyl-1-oxobutan-2-yl)decanediamide] registered an IC50 of 115 nM.

On to `CCc1cc2c(cc1N1CCC(NC(=O)CCOCCOCCNc3cccc4c3C(=O)N(C3CCC(=O)NC3=O)C4=O)CC1)C(C)(C)c1[nH]c3cc(C#N)ccc3c1C2=O` (stereo not drawn) [SIAIS219023], for which it took 29.3 nM to reach half-maximal inhibition (IC50).

Compound `CCc1cc2c(cc1N1CCC(NC(=O)CCOCCOCCOCCOCCNc3cccc4c3C(=O)N(C3CCC(=O)NC3=O)C4=O)CC1)C(C)(C)c1[nH]c3cc(C#N)ccc3c1C2=O` (stereo not drawn) [SIAIS219024, N-(1-(3-cyano-9-ethyl-6,6-dimethyl-11-oxo-6,11-dihydro-5H-benzo[b]carbazol-8-yl)piperidin-4-yl)-1-((2-(2,6-dioxopiperidin-3-yl)-1,3-dioxoisoindolin-4-yl)amino)-3,6,9,12-tetraoxapentadecan-15-amide] displayed an IC50 of 73.1 nM.
